Reference: PubChem BioAssay AID1417 (Emory University Molecular Libraries Screening Center, 2008)

molecular target: Induced myeloid leukemia cell differentiation protein Mcl-1 (Homo sapiens) (UniProt Q07820); assay: Mcl-1 Noxa peptide disruption concentration-response – biochemical, TR-FRET, dose response (AID 1417); settings: Mcl-1/Noxa peptide interaction, cell-free TR-FRET (terbium/rhodamine), 2 h; measured here: absolute IC50
Sequence (Q07820 whole entry, looked up): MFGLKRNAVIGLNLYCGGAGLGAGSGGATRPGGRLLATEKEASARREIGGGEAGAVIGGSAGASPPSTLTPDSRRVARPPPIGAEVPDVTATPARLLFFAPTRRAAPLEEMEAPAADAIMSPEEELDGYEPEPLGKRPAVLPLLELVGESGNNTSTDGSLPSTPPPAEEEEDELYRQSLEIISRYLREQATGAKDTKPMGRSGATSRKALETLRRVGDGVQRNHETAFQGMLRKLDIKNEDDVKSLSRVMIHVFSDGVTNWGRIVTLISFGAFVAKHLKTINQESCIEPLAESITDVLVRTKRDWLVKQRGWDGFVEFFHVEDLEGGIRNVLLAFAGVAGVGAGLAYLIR

Q: How did the IC50 turn out when `Cn1c(SCC(=O)Nc2ccc3nc(SCC(=O)N4CCCC4)sc3c2)nnc1-c1ccc(N)cc1` was run?
A: The IC50 was 0.688 µM.

Q: How did the IC50 turn out when `C1=CC2c3ccccc3NC(c3ccncc3)C2C1` (stereo not drawn) was run?
A: The IC50 was 1.81 µM.

Q: How did the IC50 turn out when `O=C(O)CCN1C(=O)/C(=C/c2cn(-c3ccccc3)nc2-c2cccs2)SC1=S` was run?
A: The IC50 was greater than 54 µM.

Q: Which IC50 does the source give for `N#Cc1c(NC(=O)CSc2ncnc3sccc23)oc(-c2ccco2)c1-c1ccco1` here?
A: The IC50 was 3.2 µM.

Q: `CC(C)(C)c1ccc(CN2N=Nc3ccccc3S2(=O)=O)cc1` was tested. Which IC50 did it give?
A: Its IC50 is 18.9 µM.

Q: For `CN1c2ccccc2N(C)C1(C)c1ccccc1`, which IC50 is on record?
A: Its IC50 is 1.12 µM.

Q: `COC(=O)[C@@]1(Cc2ccccc2)[C@H]2c3cc(C(=O)N4CCCC4)n(CCSCCO)c3C[C@H]2CN1C(=O)c1ccccc1` was tested. Which IC50 did it give?
A: Its IC50 is greater than 54 µM.

Q: Which IC50 does the source give for `Cc1nc(S/C(=C\c2ccc(-c3ccc(C(=O)O)c(Cl)c3)o2)C(=O)O)n[nH]1` here?
A: The IC50 was less than 0.4 µM.

Q: With `Oc1cc2c(cc1O)C1c3ccc(O)c(O)c3OCC1(O)C2` (stereo not drawn) as the compound, how does the IC50 read?
A: The IC50 was less than 0.4 µM.

Q: `CC(/C=C/c1ccco1)=N/NC(=O)Cc1cccs1` was tested. Which IC50 did it give?
A: Its IC50 is 4.32 µM.

Q: Which IC50 does the source give for `COC(=O)c1cc(O)cc(OC)c1Oc1cc(C)cc(O)c1C(=O)O` here?
A: The IC50 was greater than 54 µM.

Q: With `COc1ccccc1CNC(=O)COC(=O)c1cc(-c2ccco2)nc2ccccc12` as the compound, how does the IC50 read?
A: The IC50 was 1.8 µM.

Q: Which IC50 does the source give for `O=C1NC(=S)N/C1=C/c1ccc(-c2c(Br)cc([N+](=O)[O-])cc2Br)o1` here?
A: The IC50 was 1.45 µM.

Q: With `COc1ccccc1C1C2=C(N=c3s/c(=C/c4cccc(OCC(=O)O)c4)c(=O)n31)c1ccccc1CC2` (stereo not drawn) as the compound, how does the IC50 read?
A: Its IC50 is 2.15 µM.

Q: With `Cc1ccc2c(c1)c1ccc3c(c1n2C)C(=O)C=CC3=O` as the compound, how does the IC50 read?
A: Its IC50 is less than 0.4 µM.

Q: How did the IC50 turn out when `O=C(N/N=C/c1ccco1)c1cccc(N2Cc3ccccc3C2)c1` was run?
A: The IC50 was 3.5 µM.

Q: For `CCn1nc([N+](=O)[O-])c(C(C#N)c2nc3cc(C(F)(F)F)ccc3s2)c(Cl)c1=O` (stereo not drawn), which IC50 is on record?
A: Its IC50 is 3.15 µM.

Q: For `O=C1NN(c2ccc(Cl)c(Cl)c2)C(=O)/C1=C/c1cccc(OC(=O)c2cccs2)c1`, which IC50 is on record?
A: Its IC50 is 4.13 µM.

Q: How did the IC50 turn out when `Cc1ccccc1/C=N/Nc1ccnc2cc(Cl)ccc12` was run?
A: The IC50 was 6.6 µM.

Q: Which IC50 does the source give for `CNc1sc(C(=O)c2ccccc2F)c(N)c1-c1nc2ccccc2s1` here?
A: The IC50 was 5.67 µM.

Q: `Cc1ccc(-c2cc(C(=O)O)c3cc(Br)ccc3n2)o1` was tested. Which IC50 did it give?
A: Its IC50 is 4.68 µM.

Q: Which IC50 does the source give for `O=C(Nc1nccs1)c1cccc(N2C(=O)c3cccc4c([N+](=O)[O-])ccc(c34)C2=O)c1` here?
A: The IC50 was greater than 54 µM.

Q: With `CC1=NN(c2ccccc2)C(=O)/C1=C/c1c(O)n(-c2ccc(F)c(Cl)c2)[nH]c1=O` as the compound, how does the IC50 read?
A: Its IC50 is 4.79 µM.

Q: Which IC50 does the source give for `CN(C)c1ccc(C(CNC(=O)c2ccc(F)cc2)c2c[nH]c3ccccc23)cc1` (stereo not drawn) here?
A: The IC50 was greater than 54 µM.

Q: For `CC(C)n1c(Nn2cnnc2)nc2ccccc21`, which IC50 is on record?
A: The IC50 was greater than 54 µM.

Q: How did the IC50 turn out when `COCCCNC(=O)/C(C#N)=C/c1ccc(OCC(=O)O)c(OC)c1` was run?
A: The IC50 was 3.46 µM.

Q: `O=C(O)c1ccc(NS(=O)(=O)c2ccc3c(c2)C2C=CCC2C(c2ccccc2F)N3)cc1` (stereo not drawn) was tested. Which IC50 did it give?
A: Its IC50 is 1.27 µM.

Q: `CC(=O)c1ccc2c(c1)C1C=CCC1C(C(=O)O)N2` (stereo not drawn) was tested. Which IC50 did it give?
A: The IC50 was less than 0.4 µM.

Q: With `COc1ccc(NC(=O)Cc2c(SC)c3ccccc3n2Cc2ccccc2)cc1` as the compound, how does the IC50 read?
A: Its IC50 is greater than 54 µM.

Q: How did the IC50 turn out when `COc1cc(/C=N/NC(=O)C(Cc2c[nH]c3ccccc23)NC(=O)OCc2ccccc2)cc([N+](=O)[O-])c1O` (stereo not drawn) was run?
A: The IC50 was 4.82 µM.

Q: How did the IC50 turn out when `O=C(Nc1cccc(Oc2ccc(C(=O)O)c(C(=O)O)c2)c1)c1ccc(-c2ccccc2)cc1` was run?
A: Its IC50 is 3.61 µM.

Q: `CCS(=O)(=O)N1CCN(C(C)CCc2ccccc2)CC1` (stereo not drawn) was tested. Which IC50 did it give?
A: The IC50 was greater than 54 µM.

Q: For `COc1ccc(-n2nc3cc(C)c(N)c(Br)c3n2)cc1`, which IC50 is on record?
A: Its IC50 is 2.86 µM.

Q: For `O=C(CCO)c1ccc(O)cc1`, which IC50 is on record?
A: The IC50 was 3.19 µM.

Q: For `CNc1ccc(Br)cc(C(=O)/C=C/c2cccc(Cl)c2Cl)c1=O`, which IC50 is on record?
A: Its IC50 is 0.439 µM.

Q: How did the IC50 turn out when `CCOc1ccc(NC(=O)N(CCN2CCOCC2)Cc2ccc3c(c2)CCCN3CC)cc1` was run?
A: Its IC50 is 0.953 µM.

Q: For `c1coc(-c2nc3ccccc3nc2-c2ccco2)c1`, which IC50 is on record?
A: The IC50 was 5.17 µM.

Q: With `Cc1ccc(-c2nn(-c3ccccc3)cc2/C=C2\SC(=S)N(CC(=O)O)C2=O)cc1` as the compound, how does the IC50 read?
A: Its IC50 is 4.63 µM.

Q: How did the IC50 turn out when `COc1ccc(C(=O)N2c3ccccc3CC2C)cc1OC` (stereo not drawn) was run?
A: Its IC50 is greater than 54 µM.

Q: Which IC50 does the source give for `C=CCOC(=O)C1=C(C)N=c2s/c(=C3\C(=O)N(CC(=O)O)c4ccccc43)c(=O)n2C1c1ccc(OC)cc1` (stereo not drawn) here?
A: Its IC50 is 3.48 µM.

Q: How did the IC50 turn out when `Cc1ccc(CNC(=O)c2ccc3c(=O)[nH]c4c(C(=O)NCC5CCCO5)sc(=S)n4c3c2)cc1` (stereo not drawn) was run?
A: The IC50 was 11.1 µM.

Q: For `CNCc1ccccc1OCc1ccccc1F`, which IC50 is on record?
A: Its IC50 is 5.27 µM.

Q: `Cc1cccc(N=C2NC(=O)/C(=C/C=C/c3ccco3)S2)c1` was tested. Which IC50 did it give?
A: The IC50 was 13.5 µM.

Q: With `COc1cc(O)c(C(=O)O)c(-c2cc(O)c(O)cc2C)c1` as the compound, how does the IC50 read?
A: The IC50 was less than 0.4 µM.

Q: Which IC50 does the source give for `COc1cc(/C=C2\SC(=O)N(Cc3ccc(Cl)cc3)C2=O)cc([N+](=O)[O-])c1O` here?
A: Its IC50 is 7.11 µM.

Q: For `COc1ccc(NC(=O)Cn2ncc(Cl)c(Cl)c2=O)cc1S(=O)(=O)N1CCOCC1`, which IC50 is on record?
A: Its IC50 is 4.88 µM.

Q: Which IC50 does the source give for `Cc1cccc(C(=O)N=c2c(C#N)cc3c(=O)n4cccc(C)c4nc3n2Cc2ccco2)c1` here?
A: Its IC50 is 4.26 µM.

Q: How did the IC50 turn out when `CCOC(=O)CSc1nnc2n1C(C)(C)Cc1ccccc1-2` was run?
A: The IC50 was greater than 54 µM.

Q: With `O=C1CSC(=S)N1/N=C/c1ccc(O)c(O)c1O` as the compound, how does the IC50 read?
A: The IC50 was less than 0.4 µM.

Q: `Cc1cc(C(=O)OCC(=O)Nc2sc3c(c2C#N)CCC(C)C3)c2ccccc2n1` (stereo not drawn) was tested. Which IC50 did it give?
A: The IC50 was 4.27 µM.

Q: Which IC50 does the source give for `O=C1c2ccccc2C(=O)N1/N=C/c1ccc(O)c(O)c1O` here?
A: The IC50 was less than 0.4 µM.

Q: Which IC50 does the source give for `Cc1ccc(-n2cccc2/C=C2/C(=N)N3C(=NC2=O)SN=C3S(C)(=O)=O)cc1` here?
A: Its IC50 is 5.4 µM.

Q: With `CCOc1c(Cl)cc(CNc2ccc(N3CCCC3)cc2)cc1OC` as the compound, how does the IC50 read?
A: Its IC50 is 1.58 µM.

Q: How did the IC50 turn out when `CCN(CC)c1nc2c3c(nc4c(c3c1C#N)CC(=O)N4c1ccc(Cl)cc1)NC(C)=N2` was run?
A: Its IC50 is 3.19 µM.

Q: With `Nc1cc2nc[nH]c2cc1N` as the compound, how does the IC50 read?
A: The IC50 was 52.8 µM.

Q: For `COc1ccc(CN2C(=O)/C(=C/c3ccc(-c4ccc(Cl)c(C(=O)O)c4)o3)SC2=S)cc1`, which IC50 is on record?
A: Its IC50 is 1.56 µM.

Q: How did the IC50 turn out when `O=c1cc2c(=O)oc3cc(O)c(O)oc3c2c(O)c1O` was run?
A: The IC50 was less than 0.4 µM.

Q: For `CCN1c2ccccc2N(C)C1(C)c1ccccc1` (stereo not drawn), which IC50 is on record?
A: Its IC50 is 5.11 µM.

Q: For `O=C1NC(=O)N(Cc2ccco2)C(=O)/C1=C/c1ccc(-c2cccc([N+](=O)[O-])c2)o1`, which IC50 is on record?
A: Its IC50 is 3.28 µM.

Q: `O=C1/C(=C/c2ccco2)SC(=S)N1c1cccnc1` was tested. Which IC50 did it give?
A: Its IC50 is greater than 54 µM.

Q: For `Cc1cc(C)n2c(SC/C(O)=C(\C#N)c3nc4ccccc4[nH]3)nnc2n1`, which IC50 is on record?
A: The IC50 was less than 0.4 µM.

Q: For `CCN(CC)c1ccc(NC(=O)Nc2ccc(C(C)=O)cc2)cc1`, which IC50 is on record?
A: Its IC50 is greater than 54 µM.

Q: Which IC50 does the source give for `CCC(C)(C)n1nnnc1C(c1ccc(O)c(OC)c1)N1CCc2ccccc2C1` (stereo not drawn) here?
A: The IC50 was less than 0.4 µM.

Q: With `CCNc1ccc(Br)cc(C(=O)/C=C/c2c(Cl)cccc2Cl)c1=O` as the compound, how does the IC50 read?
A: The IC50 was 1.8 µM.

Q: Which IC50 does the source give for `CCOC(=O)c1cc(-c2ccc(/C=C3/C(=O)NC(=O)C(C#N)=C3C)o2)ccc1Cl` here?
A: The IC50 was less than 0.4 µM.

Q: With `N#CC(C#N)=NNc1ccc(S(N)(=O)=O)cc1` as the compound, how does the IC50 read?
A: The IC50 was 1.91 µM.

Q: Which IC50 does the source give for `C/C(=N/NC(=O)c1cc2ccccc2cc1O)C1C(=O)c2ccccc2C1=O` here?
A: Its IC50 is 0.919 µM.

Q: Which IC50 does the source give for `CCOc1cc(/C=N/NC(=O)c2ccc(-c3csc(Nc4ccc(C)cc4)n3)cc2)ccc1OCC(=O)O` here?
A: The IC50 was 1.07 µM.
